The record followed here is the OligoGym collection.

Bases are written 5' to 3'; sugars and linkages follow in the same order, as letters with counts (s phosphorothioate, o phosphodiester; PS: all linkages phosphorothioate). The collection does not say whether C is 5-methylated. l = locked nucleic acid (LNA); d = 2'-deoxy (DNA)

The target of this data set is Tau. Put plainly: rat primary cortical neurons, FLIPR, 25 uM ASO.
Turning to CGGAAGGTCAGCTTGT (sugars l3 d10 l3, PS), the calcium oscillation score was 32.5 % of control.

As for “TCTTTGAACACCCCATCT (sugars l2 d14 l2, PS)”, the calcium oscillation score was 41 % of control.

As for “TAATTCACACAACAAACTA (sugars l4 d11 l4, PS)”, the calcium oscillation score was 88.7 % of control.

Regarding “ACACCATCCAAGTCAAT (sugars l3 d10 l4, PS)”, the calcium oscillation score was 16.2 % of control.

Consider “ACTTTATTTCCAAATTCACTTTTAC (sugars llddldddddddddddddddllddl, PS)”, for which the calcium oscillation score was 17.7 % of control.

As to “TATTTCCAAATTCACTTTTA (sugars lllddldddddddddldlll, PS)”, the calcium oscillation score is 147 % of control.

On to TACCATGTCGATGCT (sugars l3 d9 l3, PS), for which the calcium oscillation score was 81.6 % of control.

With “CCACTGGCGACTTGTACACG (sugars l3 d14 l3, PS)”, the calcium oscillation score is 16.8 % of control.

Take “TCTAGTTATACAGTTGGCCC (sugars l3 d14 l3, PS)”: the calcium oscillation score was 21.4 % of control.

For TTGAAGTCCCGAGC (sugars l3 d8 l3, PS), the calcium oscillation score is 0 % of control.

On to AGAAATAAGTGGTAGT (sugars l3 d9 l4, PS), for which the calcium oscillation score is 101 % of control.

As for “CTTTGCTTTTACTGACCATG (sugars l3 d14 l3, PS)”, the calcium oscillation score is 0 % of control.

On to AAACCATGATCTTAGG (sugars l3 d10 l3, PS), for which the calcium oscillation score is 81.3 % of control.

For the sequence “ATTTAATTTATTTTTTACTT (sugars l4 d12 l4, PS)”, the calcium oscillation score is 50.1 % of control.

Take “TGGGTGATATTGTCCAGGGA (sugars l3 d14 l3, PS)”: the calcium oscillation score is 0 % of control.

In the case of TGGCGACTTGTACACG (sugars l3 d10 l3, PS), the calcium oscillation score is 70.6 % of control.

As to ATTAACCGAACTGCGA (sugars l3 d10 l3, PS), the calcium oscillation score was 10.9 % of control.

For the sequence “CTCCTAATTTTGCACTCA (sugars l3 d13 l2, PS)”, the calcium oscillation score is 50.5 % of control.

With “CTTTTCTCAATGTAACC (sugars l4 d10 l3, PS)”, the calcium oscillation score is 65.9 % of control.

As to “TCAACTCTTAGCATCCA (sugars l4 d11 l2, PS)”, the calcium oscillation score was 37.5 % of control.

With “CCATTTTCCATATAATTT (sugars l4 d10 l4, PS)”, the calcium oscillation score is 70.7 % of control.

As to “AACTTCTAGTTATACAGTTG (sugars l3 d14 l3, PS)”, the calcium oscillation score is 26.2 % of control.

CTGGACGTTGCTAAGA (sugars l3 d10 l3, PS): the calcium oscillation score was 0 % of control.

For “TTAAGTGATTAACCAATTAA (sugars l3 d14 l3, PS)”, the calcium oscillation score is 40.1 % of control.

Regarding “TCCACAAACCAACTCAA (sugars l3 d10 l4, PS)”, the calcium oscillation score is 99.5 % of control.

With “CTTTGTAATTCCTTCTCT (sugars l2 d13 l3, PS)”, the calcium oscillation score was 63.3 % of control.

Take “ATTTCCAAATTCACTTTTAC (sugars l2 d1 l2 d11 l4, PS)”: the calcium oscillation score was 147 % of control.

On to “ACCTCCTAGAACACAAC (sugars l4 d10 l3, PS)”, for which the calcium oscillation score is 53.9 % of control.

Regarding GAGGAACGTGTGGATG (sugars l3 d10 l3, PS), the calcium oscillation score was 3.7 % of control.

As for “AACCAACTCAACATTACCCT (sugars l2 d16 l2, PS)”, the calcium oscillation score was 86.7 % of control.

As for “ATCCAGCCATATTTCAACTC (sugars l3 d14 l3, PS)”, the calcium oscillation score is 28.2 % of control.

Take “ACAGCCTCATAAACCTA (sugars l3 d11 l3, PS)”: the calcium oscillation score is 59.4 % of control.

Consider “ACTTTATTTCCAAATTCACTTTTAC (sugars ldllldddddddddddddddllddl, PS)”, for which the calcium oscillation score was 17.7 % of control.

As to “CAAACCACTCTTATTCTTT (sugars l3 d12 l4, PS)”, the calcium oscillation score is 83.2 % of control.

As for ATGTTGCCTAATGAGC (sugars l3 d10 l3, PS), the calcium oscillation score was 69 % of control.

ACCTGGCCACCTCCTG (sugars l3 d10 l3, PS): the calcium oscillation score is 28.6 % of control.

With “GTGATATTGTCCAGGGACCC (sugars l3 d14 l3, PS)”, the calcium oscillation score is 0 % of control.

Regarding CCTTTTCATGTTAAATC (sugars l4 d9 l4, PS), the calcium oscillation score was 86.6 % of control.

As to “CGGTAGGAAAGACATTTCCC (sugars l3 d14 l3, PS)”, the calcium oscillation score was 10.1 % of control.

As for “CAGGTATCCAGCCATATTTC (sugars l3 d14 l3, PS)”, the calcium oscillation score was 27.5 % of control.

Take “CAGACCATCAATTTCCC (sugars l2 d13 l2, PS)”: the calcium oscillation score was 75.7 % of control.

Consider TCGATGCTGCCGGT (sugars l3 d8 l3, PS), for which the calcium oscillation score was 13 % of control.

Take “TTTATTTCCAAATTCACTTT (sugars l5 d11 l4, PS)”: the calcium oscillation score was 115 % of control.

With “ACACTGTCCTTTAAACA (sugars l4 d10 l3, PS)”, the calcium oscillation score is 68.1 % of control.

ACCCTTAGACATAACA (sugars l4 d10 l2, PS): the calcium oscillation score is 75.1 % of control.

Turning to “CACCTCCTATATTCTCAG (sugars l2 d12 l4, PS)”, the calcium oscillation score was 75.4 % of control.

GAAGGTGGCTCTGGGC (sugars l3 d10 l3, PS): the calcium oscillation score is 0 % of control.

With CGATGCTGCCGGTGGA (sugars l3 d10 l3, PS), the calcium oscillation score is 2.61 % of control.

Turning to “TTATTTCCAAATTCACTTTT (sugars l2 d16 l2, PS)”, the calcium oscillation score was 182 % of control.

Turning to “ATCTTAATTCATTTAATTCT (sugars l4 d12 l4, PS)”, the calcium oscillation score was 93.1 % of control.

As to “TCTTACAGCCAAATGCAGTC (sugars l3 d14 l3, PS)”, the calcium oscillation score was 23.9 % of control.

On to AACTTACCAGTTTTTCA (sugars l4 d9 l4, PS), for which the calcium oscillation score was 62.3 % of control.

“CCATTTTCCATATAATTTTA (sugars l3 d14 l3, PS)”: the calcium oscillation score is 56.3 % of control.

“CTTTTGAACCCATTCCAC (sugars l3 d13 l2, PS)”: the calcium oscillation score is 110 % of control.

Regarding “ACTTTATTTCCAAATTCACTTTTAC (sugars ldllddddddddddddddddllldl, PS)”, the calcium oscillation score is 76.7 % of control.

With CCAGCGTGATCTTC (sugars l3 d8 l3, PS), the calcium oscillation score is 120 % of control.

Turning to “AACCAATTAACCGAACTGCG (sugars l3 d14 l3, PS)”, the calcium oscillation score was 18.1 % of control.

As to “CTCTTTGAACACCCCATC (sugars l3 d13 l2, PS)”, the calcium oscillation score is 41.9 % of control.

In the case of “CCAACTTTCATCTACTTTTC (sugars l2 d16 l2, PS)”, the calcium oscillation score was 99.7 % of control.

In the case of GTCGATGCTGCCGGTG (sugars l3 d10 l3, PS), the calcium oscillation score was 0 % of control.

Consider GGGCGAGTCTACCATG (sugars l3 d10 l3, PS), for which the calcium oscillation score is 16.3 % of control.

Consider CACTGTTACACATTTAT (sugars l4 d9 l4, PS), for which the calcium oscillation score is 68 % of control.

Turning to “ACTTTATTTCCAAATTCACTTTTAC (sugars lldldddddddddddddddddlldl, PS)”, the calcium oscillation score is 29.5 % of control.

With AATTTAGTCACCATCAC (sugars l4 d9 l4, PS), the calcium oscillation score is 79.1 % of control.

For the sequence “CCAAATTCCTCATAATCCA (sugars l2 d15 l2, PS)”, the calcium oscillation score is 75 % of control.

For the sequence “CTCTTCCACTACAAGCTC (sugars l3 d13 l2, PS)”, the calcium oscillation score was 28.9 % of control.

With CAGAACTAAATTTACC (sugars l4 d8 l4, PS), the calcium oscillation score is 51.1 % of control.

In the case of “CAACTGATTCCATCACC (sugars l4 d11 l2, PS)”, the calcium oscillation score is 87.8 % of control.

Regarding CCTCTAGTTTTACCTA (sugars l2 d11 l3, PS), the calcium oscillation score is 58.8 % of control.

As for TCATCGCTTCCAGTCC (sugars l3 d10 l3, PS), the calcium oscillation score is 19.2 % of control.

“CTTTATTTCCAAATTCACTT (sugars l2 d1 l1 d12 l4, PS)”: the calcium oscillation score is 44.7 % of control.

For the sequence GTGATGCAGGAGTTGT (sugars l3 d10 l3, PS), the calcium oscillation score is 13.5 % of control.

As to “ACCCATCTTAATTCATTTAA (sugars l3 d14 l3, PS)”, the calcium oscillation score is 96.1 % of control.

Take “CTAATTTAGTCACCATC (sugars l3 d10 l4, PS)”: the calcium oscillation score was 83.3 % of control.

Consider CAGAGGAACGTGTGGA (sugars l3 d10 l3, PS), for which the calcium oscillation score was 29.6 % of control.

As to TTCTCGCGGAAGGTCA (sugars l3 d10 l3, PS), the calcium oscillation score was 0 % of control.

For “CTCAGATTTTACTTCCAC (sugars l4 d12 l2, PS)”, the calcium oscillation score was 43.1 % of control.

In the case of “ATTTAGTCACCATCACT (sugars l3 d10 l4, PS)”, the calcium oscillation score was 102 % of control.

On to “TATTGCTTTCCAATTCCC (sugars l4 d12 l2, PS)”, for which the calcium oscillation score is 93.2 % of control.

Turning to GATATTCCACACATAA (sugars l4 d8 l4, PS), the calcium oscillation score was 54.8 % of control.

“CAGCTAAGACCCTCAGGTTT (sugars l3 d14 l3, PS)”: the calcium oscillation score was 38.5 % of control.

In the case of CCATCAATTTCCCTGT (sugars l2 d10 l4, PS), the calcium oscillation score was 56.3 % of control.

As for “TATTTCCAAATTCACTTTTA (sugars lldlddldddddddddllll, PS)”, the calcium oscillation score was 114 % of control.

With GTGTTTGATATTATCC (sugars l3 d10 l3, PS), the calcium oscillation score was 46.7 % of control.

As to TTGAGTTGAGGGACCC (sugars l3 d10 l3, PS), the calcium oscillation score is 0 % of control.

With “CTTAAAATTTTTCTTATTTT (sugars l4 d12 l4, PS)”, the calcium oscillation score was 62.8 % of control.

Consider TGGATATAGTTAAGGC (sugars l4 d8 l4, PS), for which the calcium oscillation score was 117 % of control.

ATATTGAACTCACCCA (sugars l4 d9 l3, PS): the calcium oscillation score is 67.3 % of control.

For “AACTGATTCCATCACCA (sugars l3 d11 l3, PS)”, the calcium oscillation score was 69.7 % of control.

As to “ACTCATTTACCAATTATCTT (sugars l2 d14 l4, PS)”, the calcium oscillation score was 60.6 % of control.

Regarding “ACTTATCTATCCATCTAT (sugars l4 d11 l3, PS)”, the calcium oscillation score was 80.2 % of control.

For “GAGAGACCACATTATCATCC (sugars l3 d14 l3, PS)”, the calcium oscillation score was 96.7 % of control.

On to GAATAACATTAACCCT (sugars l4 d8 l4, PS), for which the calcium oscillation score was 74.5 % of control.

As to CATGTCGATGCTGCC (sugars l3 d9 l3, PS), the calcium oscillation score is 89.5 % of control.
